The values that follow come from ChEMBL document CHEMBL1142444 (Bioorg Med Chem Lett, 2008).

By EC50 is commonly meant the midpoint of the concentration-response curve. For orientation: IC50 means the concentration needed to halve the response being measured.

Test [1] deals with T1, Muscarinic acetylcholine receptor M5 (Homo sapiens, UniProt P08912).
T1 sequence (P08912 whole entry): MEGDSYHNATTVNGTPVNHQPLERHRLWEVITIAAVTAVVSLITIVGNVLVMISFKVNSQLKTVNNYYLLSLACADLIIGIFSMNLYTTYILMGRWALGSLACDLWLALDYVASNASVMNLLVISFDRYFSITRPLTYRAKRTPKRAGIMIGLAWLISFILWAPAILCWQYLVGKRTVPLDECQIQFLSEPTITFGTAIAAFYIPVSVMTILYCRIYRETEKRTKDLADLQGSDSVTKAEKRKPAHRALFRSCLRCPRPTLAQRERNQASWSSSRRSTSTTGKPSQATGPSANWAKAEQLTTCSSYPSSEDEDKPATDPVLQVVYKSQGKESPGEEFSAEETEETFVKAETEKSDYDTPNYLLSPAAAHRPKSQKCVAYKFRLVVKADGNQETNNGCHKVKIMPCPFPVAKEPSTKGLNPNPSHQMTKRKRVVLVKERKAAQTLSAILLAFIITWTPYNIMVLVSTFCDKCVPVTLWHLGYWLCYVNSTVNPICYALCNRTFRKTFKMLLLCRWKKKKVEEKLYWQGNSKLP
The test is described as follows: Agonist activity at muscarinic M5 receptor. Type of test: functional.

The target in test [2] is T2, Muscarinic acetylcholine receptor M2 (Homo sapiens, UniProt P08172).
T2 sequence (P08172 whole entry): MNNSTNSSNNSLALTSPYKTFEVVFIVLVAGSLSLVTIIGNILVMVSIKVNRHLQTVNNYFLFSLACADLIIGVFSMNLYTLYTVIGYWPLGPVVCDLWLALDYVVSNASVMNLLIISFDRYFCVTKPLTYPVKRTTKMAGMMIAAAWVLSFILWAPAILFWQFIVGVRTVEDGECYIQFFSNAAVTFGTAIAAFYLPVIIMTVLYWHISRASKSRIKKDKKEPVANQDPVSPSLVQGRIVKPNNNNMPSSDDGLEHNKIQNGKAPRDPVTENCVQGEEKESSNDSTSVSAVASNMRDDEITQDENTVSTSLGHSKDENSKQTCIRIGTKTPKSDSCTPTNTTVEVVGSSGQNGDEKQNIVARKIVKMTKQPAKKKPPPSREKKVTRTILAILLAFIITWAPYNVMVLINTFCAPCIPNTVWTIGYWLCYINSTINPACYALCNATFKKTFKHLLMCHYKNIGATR
The test is described as follows: Agonist activity at muscarinic M2 receptor. Type of test: functional.

Test [3] deals with T3, Muscarinic acetylcholine receptor M1 (Homo sapiens) (UniProt P11229).
T3 sequence (whole entry): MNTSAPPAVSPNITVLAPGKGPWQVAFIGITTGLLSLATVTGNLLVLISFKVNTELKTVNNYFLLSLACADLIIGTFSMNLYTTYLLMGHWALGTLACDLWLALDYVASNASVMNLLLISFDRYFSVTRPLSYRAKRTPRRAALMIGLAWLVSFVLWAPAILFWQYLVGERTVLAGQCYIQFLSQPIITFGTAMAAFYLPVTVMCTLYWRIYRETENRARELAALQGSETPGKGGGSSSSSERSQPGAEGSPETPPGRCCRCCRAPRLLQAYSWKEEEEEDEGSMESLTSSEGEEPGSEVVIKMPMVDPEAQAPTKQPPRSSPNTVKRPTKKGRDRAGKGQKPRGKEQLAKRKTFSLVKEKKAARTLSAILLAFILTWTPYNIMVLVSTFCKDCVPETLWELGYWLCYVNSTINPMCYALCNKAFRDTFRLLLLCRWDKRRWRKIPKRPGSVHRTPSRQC
The test is described as follows: Agonist activity at muscarinic M1 receptor relative to carbachol. The test is classed as functional.

Test [4] concerns the target T4, Muscarinic acetylcholine receptor M4 (Homo sapiens, UniProt P08173).
T4 sequence (P08173 whole entry): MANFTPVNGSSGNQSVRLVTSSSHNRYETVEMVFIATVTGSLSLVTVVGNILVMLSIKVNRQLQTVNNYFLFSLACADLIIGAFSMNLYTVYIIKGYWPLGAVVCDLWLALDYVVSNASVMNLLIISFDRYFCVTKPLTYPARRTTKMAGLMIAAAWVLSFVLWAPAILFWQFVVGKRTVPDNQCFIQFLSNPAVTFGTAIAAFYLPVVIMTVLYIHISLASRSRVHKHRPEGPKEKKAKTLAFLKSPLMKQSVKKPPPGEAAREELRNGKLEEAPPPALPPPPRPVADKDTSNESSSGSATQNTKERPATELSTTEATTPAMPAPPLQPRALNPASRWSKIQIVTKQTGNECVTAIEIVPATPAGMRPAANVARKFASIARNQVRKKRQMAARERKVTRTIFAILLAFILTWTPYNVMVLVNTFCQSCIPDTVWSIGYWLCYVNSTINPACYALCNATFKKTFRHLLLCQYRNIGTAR
The test is described as follows: Agonist activity at muscarinic M4 receptor. The test is classed as functional.

Test [5] has as its target T5, D(2) dopamine receptor (Homo sapiens, UniProt P14416). The test is described as follows: Inhibition of dopamine D2 receptor.
Test [6] concerns the target Muscarinic acetylcholine receptor M3 (Homo sapiens, UniProt P20309). The test is described as follows: Agonist activity at muscarinic M3 receptor. The test is classed as functional.
Test [7] has as its target T6, Muscarinic acetylcholine receptor M1 (Homo sapiens, UniProt P11229).
T6 sequence (P11229 whole entry): T3 sequence (whole entry)
The test is described as follows: Agonist activity at muscarinic M1 receptor. Type of test: functional.

Test [8] deals with T5, D(2) dopamine receptor. The test is described as follows: Inhibition of dopamine D2 receptor at 10 uM. On the set-up: scale not given: the % may be the effect or the level left.
The target in test [9] is T7, Muscarinic acetylcholine receptor M4 (Homo sapiens) (UniProt P08173).
T7 sequence (whole entry): T4 sequence (P08173 whole entry)
The test is described as follows: Agonist activity at muscarinic M4 receptor relative to carbachol. Type of test: functional.

The target of test [10] is T8, Muscarinic acetylcholine receptor M2 (Homo sapiens) (UniProt P08172).
T8 sequence (whole entry): T2 sequence (P08172 whole entry)
The test is described as follows: Agonist activity at muscarinic M2 receptor relative to carbachol. Type of test: functional.

The target of test [11] is T9, Muscarinic acetylcholine receptor M5 (Homo sapiens) (UniProt P08912).
T9 sequence (whole entry): T1 sequence (P08912 whole entry)
The test is described as follows: Agonist activity at muscarinic M5 receptor relative to carbachol. Type of test: functional.

A value given as a limit tells only on which side of the number the result lay.

T5 sequence (P14416 whole entry): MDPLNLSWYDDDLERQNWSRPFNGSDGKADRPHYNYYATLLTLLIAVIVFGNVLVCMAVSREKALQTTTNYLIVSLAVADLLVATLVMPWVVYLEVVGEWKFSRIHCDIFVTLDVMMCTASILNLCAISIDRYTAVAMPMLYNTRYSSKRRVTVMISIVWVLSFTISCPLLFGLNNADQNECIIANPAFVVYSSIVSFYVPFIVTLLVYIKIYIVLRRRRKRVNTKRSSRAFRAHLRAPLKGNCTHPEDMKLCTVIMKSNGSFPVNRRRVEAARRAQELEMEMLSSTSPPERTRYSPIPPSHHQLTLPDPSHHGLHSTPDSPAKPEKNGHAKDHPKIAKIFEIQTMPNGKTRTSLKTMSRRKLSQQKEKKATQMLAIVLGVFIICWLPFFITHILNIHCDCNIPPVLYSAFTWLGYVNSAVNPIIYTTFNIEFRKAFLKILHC
Sequence of Muscarinic acetylcholine receptor M3 (P20309 whole entry): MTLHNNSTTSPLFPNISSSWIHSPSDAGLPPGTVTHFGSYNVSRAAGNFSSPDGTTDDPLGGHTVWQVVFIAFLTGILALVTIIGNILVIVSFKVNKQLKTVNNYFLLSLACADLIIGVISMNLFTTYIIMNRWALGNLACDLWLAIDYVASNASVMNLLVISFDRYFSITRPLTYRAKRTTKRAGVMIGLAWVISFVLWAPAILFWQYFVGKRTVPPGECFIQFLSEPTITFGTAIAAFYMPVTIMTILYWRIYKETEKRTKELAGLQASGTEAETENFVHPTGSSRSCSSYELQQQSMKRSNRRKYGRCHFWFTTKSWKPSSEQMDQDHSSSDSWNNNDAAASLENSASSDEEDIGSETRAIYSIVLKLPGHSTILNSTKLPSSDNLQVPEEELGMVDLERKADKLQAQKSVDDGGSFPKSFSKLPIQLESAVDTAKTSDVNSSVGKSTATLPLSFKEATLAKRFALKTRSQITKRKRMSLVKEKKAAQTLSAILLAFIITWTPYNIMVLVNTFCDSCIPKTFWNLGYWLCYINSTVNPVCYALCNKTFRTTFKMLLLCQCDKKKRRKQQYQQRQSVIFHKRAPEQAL

As to `Cc1ccccc1CN1CCC(N2CCC(n3c(=O)[nH]c4ccc(F)cc43)CC2)CC1`, the half-maximal effective concentration (EC50) in test [1], in [2], in test [4] and in [6] was more than 50 µM in each case. The compound also gave an Activity in test [3] of 84%. This compound also returned a half-maximal inhibitory concentration (IC50) in [5] of more than 10 µM.

As for `O=c1[nH]c2ccccc2n1C1CCN(C2CCN(Cc3ccccc3Cl)CC2)CC1`, the EC50 in test [1] was more than 50 µM; in test [2] it was more than 50 µM; in [7] it was 0.26 µM; in [4], more than 50 µM; in test [6], more than 50 µM. In test [3], the Activity was found to be 44%. The same compound gave an IC50 in [5] of 2.06 µM.

For `Cc1ccccc1CN1CCC(N2CCC(n3c(=O)[nH]c4cc(Cl)ccc43)CC2)CC1`, the concentration giving a half-maximal response (EC50) is more than 50 µM in test [1]; more than 50 µM in test [2]; 1.03 µM in [7]; more than 50 µM in test [4]; more than 50 µM in test [6]. Further, the values for the Activity in test [3] and in [8] were 84% and 35%, respectively.

For `O=c1[nH]c2cc(Cl)ccc2n1C1CCN(C2CCN(Cc3ccccc3C(F)(F)F)CC2)CC1`, the EC50 was more than 50 µM in [1]; more than 50 µM in test [2]; 1.5 µM in test [7]; more than 50 µM in test [4]; more than 50 µM in [6]. In addition, the Activity in test [3] was found to be 83%.

Turning to `N#Cc1ccccc1CN1CCC(N2CCC(n3c(=O)[nH]c4ccccc43)CC2)CC1`, the concentration for a half-maximal effect (EC50) in [1] is more than 50 µM; in test [2], more than 50 µM; in test [7] it was 0.49 µM; in test [4] it was more than 50 µM; in test [6], more than 50 µM. The Activity amounted to 23% in test [3] and 40% in test [8].

On to `O=c1[nH]c2ccccc2n1C1CCN(C2CCN(Cc3ccccc3[N+](=O)[O-])CC2)CC1`, for which the EC50 in test [1] was more than 50 µM; in test [2] it was more than 50 µM; in [7], 0.12 µM; in test [4], more than 50 µM; in test [6] it was more than 50 µM. This compound had an Activity in test [3] of 48%. The compound also yielded an IC50 in test [5] of 1.13 µM.

As to `O=c1[nH]c2cc(F)ccc2n1C1CCN(C2CCN(Cc3ccccc3C(F)(F)F)CC2)CC1`, the EC50 in test [1], in test [2], in [4] and in test [6] was more than 50 µM in each case. Also, the Activity in [3] turned out to be 80%. This compound also came in with an IC50 in test [5] of 2.69 µM.

Take `Cc1ccccc1CN1CCC(N2CCC(n3c(=O)[nH]c4c(F)cccc43)CC2)CC1`: the concentration for a half-maximal effect (EC50) in test [1], in test [2], in test [4] and in test [6] was more than 50 µM in each case. The Activity in test [3] was found to be 73%. For the same compound, in [5], the IC50 is more than 10 µM.

`O=c1[nH]c2cc(Cl)ccc2n1C1CCN(C2CCN(Cc3ccccc3)CC2)CC1`: the EC50 in [1] was more than 50 µM; in test [2] it was more than 50 µM; in [7] it was 0.356 µM; in [4], more than 50 µM; in [6], more than 50 µM. Further, the Activity is 74% in test [3] and 35% in test [8].

In the case of `O=c1[nH]c2c(F)cccc2n1C1CCN(C2CCN(Cc3ccccc3C(F)(F)F)CC2)CC1`, the EC50 in [1], in test [2], in [4] and in test [6] was more than 50 µM throughout. This compound also yielded an Activity in test [3] of 75%. Moreover, the IC50 in test [5] was more than 10 µM.

Take `O=c1[nH]c2ccc(F)cc2n1C1CCN(C2CCN(Cc3ccccc3C(F)(F)F)CC2)CC1`: the half-maximal effective concentration (EC50) in test [1], in [2], in test [4] and in test [6] was more than 50 µM in each case. This compound also gave an IC50 in test [5] of more than 10 µM.

In the case of `Cc1ccccc1CN1CCC(N2CCC(n3c(=O)[nH]c4ccccc43)CC2)CC1`, the EC50 in test [1] and in test [2] was more than 50 µM each time. In test [3], the Activity was determined as 82%. The compound further gave an IC50 in test [5] of 2.65 µM.

In the case of `Cc1ccccc1CN1CCC(N2CCC(n3c(=O)[nH]c4cc(F)ccc43)CC2)CC1`, the EC50 in test [1], in test [2], in [4] and in test [6] was more than 50 µM in each case. In addition, the Activity worked out at 85% in test [3] and 40% in test [8].

`N#Cc1ccccc1CN1CCC(N2CCC(n3c(=O)[nH]c4cc(Cl)ccc43)CC2)CC1`: the EC50 is more than 50 µM in [1]; more than 50 µM in test [2]; 1.6 µM in test [7]; more than 50 µM in test [4]; more than 50 µM in test [6]. For the same compound, in test [3], the Activity is 27%.

Take `O=c1[nH]c2cc(Cl)ccc2n1C1CCN(C2CCN(Cc3ccccc3[N+](=O)[O-])CC2)CC1`: the 50% effective concentration (EC50) in [1] was more than 50 µM; in test [2], more than 50 µM; in test [7], 1.1 µM; in test [4], more than 50 µM; in test [6] it was more than 50 µM. For the same compound, the Activity in [3] was 42%.

As for `O=c1[nH]c2cc(Cl)ccc2n1C1CCN(C2CCN(Cc3ccccc3Cl)CC2)CC1`, the concentration for a half-maximal effect (EC50) in test [1] is more than 50 µM; in [2], more than 50 µM; in test [7] it was 1.8 µM; in [4], more than 50 µM; in test [6], more than 50 µM. Also, in test [3], the Activity came out at 49%.

For `CCOC(=O)N1CCC(N2CCC(n3c(=O)[nH]c4ccccc43)CC2)CC1`, the 50% effective concentration (EC50) in [1] amounted to 0.0343 µM; in test [2], 0.0119 µM; in test [4], 0.0091 µM. Further, the Activity in [9] is 96.9%; in test [10], 80.6%; in test [11], 50.8%. Besides, the 50% inhibitory concentration (IC50) in test [5] is more than 10 µM.

On to `O=c1[nH]c2ccccc2n1C1CCN(C2CCN(Cc3ccccc3C(F)(F)F)CC2)CC1`, for which the half-maximal effective concentration (EC50) in test [1] is more than 50 µM; in test [2], more than 50 µM; in test [7], 0.41 µM; in test [4], more than 50 µM; in test [6], more than 50 µM. In addition, in [8], the Activity turned out to be 30%.
